Laboratory results: ChEMBL document CHEMBL1135867, “Synthesis, photobiological activity and photoreactivity of methyl-thieno-8-azacoumarins, novel bioisosters of psoralen” (Bioorg Med Chem Lett, 2002)
Calls of active or inactive are those of the source. No cut-off for these calls is given here.

Key:
Cavia porcellus [1] = species: Cavia porcellus; assay: Skin phototoxicity was evaluated after UVA irradiation at a dose of 0.2 (umol cm e-2) and formation of erythema was reported; Absent; assay type: functional, organism-based
HeLa = assay: Compound was evaluated for its antiproliferative activity after UVA irradiation on human tumor HeLa cell line; assay type: functional, cell-based; details: light or radiation study
HL-60 = assay: Compound was evaluated for its antiproliferative activity after UVA irradiation on human tumor HL-60 cell line; assay type: functional, cell-based; details: HL-60, light or radiation study
Cavia porcellus [2] = assay: Skin phototoxicity was evaluated after UVA irradiation at a dose of 0.05 (umol cm e-2) and formation of erythema was reported; Strong (with edema); assay type: functional, organism-based

IC50 (HeLa) [µM] | IC50 (HL-60) [µM] | SMILES | Formation of erythema (Cavia porcellus [1]) | Formation of erythema (Cavia porcellus [2])
8.9 | 2.2 | Cc1cc(=O)oc2nc3scc(C)c3cc12 | inactive | –
> 20 | 7.3 | Cc1sc2nc3oc(=O)cc(C)c3cc2c1C | inactive | –
– | – | COc1c2occc2cc2ccc(=O)oc12 | – | Active
